Experimental data published in patent US20080200475A1 (Pfizer Inc., priority 2005, published 2008).

Molecular target: T1, Human P2Y12 (Homo sapiens, UniProt Q9H244)
T1 construct: expressed in transfected cells; host or cells: HEK cells (membrane preparation)
Assay: [^33P]-2MeS-ADP Binding to Recombinant Human P2Y12 Membranes (Assay 3)
Details: for inhibition at 10 µM: highest concentration tested 10 μM; for IC50 / Ki: membranes of HEK cells transfected with P2Y12, competition with ^33P 2MeS-ADP, multiple lines = multiple runs
Method: 3. Human P2Y12 Recombinant Cell Membrane Binding Assay with ^33P 2MeS-ADP.
The ability of a test compound to bind to the P2Y12 receptor was evaluated in a recombinant cell membrane binding assay. In this competitive binding assay, the test compound competed against a radiolabelled agonist for binding to the P2Y12 receptor, expressed on the cell membrane. Inhibition of binding of the labeled material was measured and correlated to the amount and potency of the test compound. Data from this assay are presented in Table F. This binding assay is a modification of the procedure in Takasaki, J. et. al, Mol. Pharmacol., 2001, Vol. 60, pg. 432.
HEK cells were transfected with the pDONR201P2Y12 vector and cultured in MEM with GlutaMAX I, Earle's salts, 25 mM HEPES (Gibco #42360-032) containing 10% dialyzed FBS (Gibco #26400-044), 100 μM nonessential amino acids (Gibco #11140-050), 1 mM sodium pyruvate (Gibco #11360-070), 0.05% geneticin (Gibco #10131-027), 3 μg/mL blasticidin (Fluka brand from Sigma #15205), and 0.5 μg/mL puromycin (Sigma #P-8833).
Confluent cells were washed once with cold DPBS (Gibco #14190-136). Fresh DPBS was added and the cells were scraped and centrifuged at 500×g for 5 minutes at 4° C. The cell pellets were resuspended in TEE buffer (25 mM Tris, 5 mM EDTA, 5 mM EGTA) containing 1 protease inhibitor cocktail tablet (Roche #1 873 580) per 50 mL (called TEE+Complete) and can be flash frozen at this point.
In one embodiment, frozen cell pellets were used to prepare the membranes. In that embodiment, the frozen cell pellets were thawed on ice. In another embodiment, cell pellets may be used without flash freezing before moving on to the next step.
Cell pellets were resuspended in TEE buffer+Complete and homogenized in a glass dounce for 12 strokes. The cell suspension was centrifuged at 500×g for 5 minutes at 4° C. The supernatant was saved and centrifuged at 20,000×g for 20 minutes at 4° C. This supernatant was discarded and the cell pellet resuspended in TEE buffer+Complete and homogenized in a glass dounce for 12 strokes. This suspension was centrifuged at 20,000×g for 20 minutes at 4° C. and the supernatant discarded. The pellet was resuspended in assay buffer (50 mM Tris, 100 mM NaCl, 1 mM EDTA) containing one protease inhibitor cocktail tablet per 50 mL, and can be flash frozen as 1 mL aliquots at this point.
[…] A 1 mM DMSO intermediate stock was made in a dilution plate and from this the seven dilutions were made to 5× the final concentration in assay buffer containing 0.02% BSA.
To a polypropylene assay plate (Costar #3365) the following were added: a) 30 μL of assay buffer containing one protease inhibitor cocktail tablet per 50 mL; b) 30 μL of 1 nM ^33P 2MeS-ADP made in assay buffer containing 0.02% BSA and 12.5 mg/mL ascorbic acid; 30 μL of cold 1.5 μM 2MeS-ADP for the positive control wells, or assay buffer containing 0.02% BSA and 12.5 mg/mL ascorbic acid for the negative control wells, or 5× drug dilution; and 60 μL of 1 ug/well membranes.
The plates were incubated at room temperature for 1 hour. The reaction was stopped using a cell harvester to transfer the reaction mixture onto GF/B UniFilter plates (Perkin Elmer #6005177), and washed three times with wash buffer (50 mM Tris), filtering between each wash. The filter plates were dried for approximately 20 minutes in an oven at 50° C. Back seals were adhered to the filter plates and 25 uL of Microscint 20 scintillation fluid (Perkin Elmer #6013621) were added. The filter plates were sealed, shaken for 30 minutes, and counted on a Top Count. Data were analyzed using a four-parameter curve fit with a fixed minimum and maximum experimentally defined as the average positive and negative controls on each plate, and with a hill slope equal to one. […]

T1 sequence (Q9H244 whole entry): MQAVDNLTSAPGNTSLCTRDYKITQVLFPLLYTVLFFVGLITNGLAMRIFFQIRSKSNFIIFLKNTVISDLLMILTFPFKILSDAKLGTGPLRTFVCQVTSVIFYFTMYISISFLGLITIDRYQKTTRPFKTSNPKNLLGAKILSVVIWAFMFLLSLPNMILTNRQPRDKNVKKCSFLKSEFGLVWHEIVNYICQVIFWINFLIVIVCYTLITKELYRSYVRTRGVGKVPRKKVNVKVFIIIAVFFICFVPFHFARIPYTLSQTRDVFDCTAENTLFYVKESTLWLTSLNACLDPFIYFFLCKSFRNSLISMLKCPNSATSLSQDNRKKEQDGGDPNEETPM

Row | SMILES | inhibition at 10 µM | IC50 | Ki
1 | CCc1cc2c(N3CCN(C(=O)c4ccc(-c5ccccc5)cc4)CC3)nc(NC(=O)COC)nc2s1 [Example 23, N-{4-[4-(Biphenyl-4-carbonyl)piperazin-1-yl]-6-ethylthieno[2,3-d]pyrimidin-2-yl}-2-methoxyacetamide] | 93.2% | 0.0624 µM | 0.036 µM
2 | CCc1cc2c(N3CCN(C(=O)c4ccc(-c5ccccc5)cc4)CC3)nc(NC(=O)C(C)C)nc2s1 [Example 24] | 90% | 0.163 µM | 0.089 µM
3 | CCc1cc2c(N3CCN(C(=O)c4ccc(-c5ccccc5)cc4)CC3)nc(NC(C)=O)nc2s1 [Example 25, N-{4-[4-(Biphenyl-4-carbonyl)piperazin-1-yl]-6-ethylthieno[2,3-d]pyrimidin-2-yl}acetamide] | 91% | 0.159 µM | 0.093 µM
4 | CCc1cc2c(N3CCN(C(=O)c4ccc(-c5ccccc5)cc4)CC3)nc(NC(=O)COCc3ccccc3)nc2s1 [Example 27, 2-Benzyloxy-N-{4-[4-(biphenyl-4-carbonyl)piperazin-1-yl]-6-ethylthieno[2,3-d]pyrimidin-2-yl}acetamide] | 84% | 0.204 µM | 0.119 µM
5 | CCc1cc2c(N3CCN(C(=O)c4ccc(-c5ccccc5)cc4)CC3)nc(NC(=O)CCNC(=O)OCc3ccccc3)nc2s1 [Example 28, Benzyl(2-{4-[4-(biphenyl-4-carbonyl)piperazin-1-yl]-6-ethylthieno[2,3-d]pyrimidin-2-ylcarbamoyl}ethyl)carbamate] | 92.7% | 0.0381 µM | 0.021 µM

Further lines, results first:

Row | inhibition at 10 µM | IC50 | Ki | SMILES
6 | 94.5% | 0.066 µM | 0.038 µM | CCOC(=O)CNC(=O)Nc1nc(N2CCN(C(=O)c3ccc(-c4ccccc4)cc3)CC2)c2cc(CC)sc2n1 [Example 15, Ethyl N-[({4-[4-(1,1′-biphenyl-4-ylcarbonyl)piperazin-1-yl]-6-ethylthieno[2,3-d]pyrimidin-2-yl}amino)carbonyl]glycinate]
7 | 80.8% | 0.244 µM | 0.14 µM | C=C(C)C(=O)OCCNC(=O)Nc1nc(N2CCN(C(=O)c3ccc(-c4ccccc4)cc3)CC2)c2cc(CC)sc2n1 [Example 16, 2-{[({4-[4-(1,1′-Biphenyl-4-ylcarbonyl)piperazin-1-yl]-6-ethylthieno[2,3-d]pyrimidin-2-yl}amino)carbonyl]amino}ethyl 2-methylacrylate]
8 | 89.9% | 0.157 µM | 0.09 µM | CCOC(=O)CCNC(=O)Nc1nc(N2CCN(C(=O)c3ccc(-c4ccccc4)cc3)CC2)c2cc(CC)sc2n1 [Example 17, ethyl N-[({4-[4-(1,1′-biphenyl-4-ylcarbonyl)piperazin-1-yl]-6-ethylthieno[2,3-d]pyrimidin-2-yl}amino)carbonyl]-beta-alaninate]
9 | 95.4% | 0.0043 µM | 0.002 µM | CCc1cc2c(N3CCN(C(=O)c4ccc(-c5ccccc5)cc4)CC3)nc(NC(=O)NCC(=O)O)nc2s1 [Example 18, N-[({4-[4-(1,1′-Biphenyl-4-ylcarbonyl)piperazin-1-yl]-6-ethylthieno[2,3-d]pyrimidin-2-yl}amino)carbonyl]glycine]
10 | 88% | 0.006 µM | 0.003 µM | CCc1cc2c(N3CCN(C(=O)c4ccc(-c5ccccc5)cc4)CC3)nc(NC(=O)NCCC(=O)O)nc2s1 [Example 19, N-[({4-[4-(1,1′-Biphenyl-4-ylcarbonyl)piperazin-1-yl]-6-ethylthieno[2,3-d]pyrimidin-2-yl}amino)carbonyl]-beta-alanine]
11 | 89% | 0.072 µM | 0.047 µM | CCc1cc2c(N3CCN(C(=O)c4ccc(-c5ccccc5)cc4)CC3)nc(NC(=O)NCCCO)nc2s1 [Example 20, N-{4-[4-(1,1′-Biphenyl-4-ylcarbonyl)piperazin-1-yl]-6-ethylthieno[2,3-d]pyrimidin-2-yl}-N′-(3-hydroxypropyl)urea]
